Laboratory results: patent publication US20040033614A1, “Detection of oxidative intermediates in biological samples” (priority 2002, published 2004)

Assays:
[1] = tested on: superoxide dismutase and glutathione peroxidase; details: 5/6th nephrectomized rats treated with enalapril; reference 26; cited from earlier work
[2] = Blood pressure and proteinuria in the add-on losartan trial; type: in vivo, patients with chronic kidney disease; details: losartan 50 mg/d added to lisinopril 40 mg/d; as reported previously (15)
Protocol: The protocol design of this study was reported in detail previously (15). Briefly, patients between the ages of 18 to 80 years with proteinuria of ≧1 g/d, hypertension defined as mean arterial pressure ≧97 mm Hg, serum potassium of ≦5.5 mEq/L and on lisinopril therapy of 40 mg/d for >3 months were eligible for the study. […] The study was a two period, cross-over, randomized controlled trial. Patients received either a sequence of losartan 50 mg/d for 4 weeks, a two week washout, and then placebo for 4 weeks or placebo for 4 weeks, a two week washout, and then losartan 50 mg/d for 4 weeks. Lisinopril 40 mg/d along with other anti-hypertensive therapy were continued throughout the trial. […] Serum chemistries, complete blood counts, urine protein, electrolytes, urea and creatinine were measured in a hospital laboratory using routine methods. Specifically, creatinine was measured on a Hitachi 911 analyzer (Boehringer Mannheim) using the alkaline picrate method and urine protein was measured using a turbidometric method using benzethonium chloride read at 550 nm (Roche Diagnostics Corporation, Indianapolis, Ind.). Ambulatory blood pressure was measured with SpaceLabs 90207 monitors and glomerular filtration rate measurements with continuous infusion of iothalamate as previously reported (15).

[3] = tested on: plasma protein carbonyl; test: Total plasma protein carbonyl measurement by size exclusion HPLC; type: in vivo, patients with chronic kidney disease; details: direct measurement of protein carbonylation in plasma
Protocol: (§1) The protocol design of this study was reported in detail previously (15). Briefly, patients between the ages of 18 to 80 years with proteinuria of ≧1 g/d, hypertension defined as mean arterial pressure ≧97 mm Hg, serum potassium of ≦5.5 mEq/L and on lisinopril therapy of 40 mg/d for >3 months were eligible for the study. Patients who had previously received angiotensin receptor blockers or with estimated creatine clearance of <30 ml/min were excluded.
(§2) The study was a two period, cross-over, randomized controlled trial. Patients received either a sequence of losartan 50 mg/d for 4 weeks, a two week washout, and then placebo for 4 weeks or placebo for 4 weeks, a two week washout, and then losartan 50 mg/d for 4 weeks. Lisinopril 40 mg/d along with other anti-hypertensive therapy were continued throughout the trial. 24-hour urine was collected for protein, sodium, urea and creatinine, urinary carbonylated protein, malondialdehyde and monocyte chemotactic protein-l (MCP1) measurements. As the standard therapy for patients with proteinuria and renal failure includes ACE-inhibitors, ACE-inhibitors were not removed from any patient enrolled in the study.

[4] = tested on: urinary albumin and total urinary protein oxidation; test: Carbonylation of urine proteins by Western blotting (DNP derivatization, OxyBlot); type: in vivo, patients with chronic kidney disease
Protocol: as §1, §2
Oxidation of plasma and urine proteins was measured by Western blot analysis according to the method of Shacter et al. Total protein was determined using the Vitros Dry Slide system (Ortho-Clinical Diagnostics, Rochester, N.Y.). Plasma was diluted 1:25 (v:v) with phosphate-buffered saline (PBS), and one aliquot of the diluted sample was derivatized and another prepared as an underivatized control using the OxyBlot protein oxidation detection kit (Intergen, Purchase, N.Y.). […] Derivatized and underivatized plasma or urine samples were loaded on electrophoresis gels in volumes calculated to give 5 μg of protein per sample, and the samples were electrophoresed according to the method of Laemmli on 4 to 20% gradient SDS-PAGE (Bio-Rad, Hercules, Calif.). […] Bands were visualized with chemiluminescent chemicals and captured on film at two exposure times (30 seconds and 1 minute). Blots were scanned on a Hewlett-Packard ScanJet 5200C scanner (Hewlett-Packard, Palo Alto, Calif.) and analyzed for band area using Un-Scan-It Gel software (Silk Scientific, Orem, Utah).
Samples from individual patients before and after losartan therapy, including derivatized and underivatized controls, were analyzed on a single Western blot. This ensured that the response to losartan therapy was compared under the same analytical conditions. […] Density of individual albumin bands and total protein in each sample lane was determined using the same size section of each scanned blot. […] The uniform window size and analysis box ensured that data were being analyzed consistently from band to band and from blot to blot. […]

[5] = tested on: plasma albumin and total plasma protein oxidation; test: Carbonylation of plasma proteins by Western blotting (DNP derivatization, OxyBlot); type: in vivo, patients with chronic kidney disease; details: before vs after losartan 50 mg/d for 4 weeks
Protocol: as §1
The study was a two period, cross-over, randomized controlled trial. […]
Oxidation of plasma and urine proteins was measured by Western blot analysis according to the method of Shacter et al. Total protein was determined using the Vitros Dry Slide system (Ortho-Clinical Diagnostics, Rochester, N.Y.). […] Derivatized and underivatized plasma or urine samples were loaded on electrophoresis gels in volumes calculated to give 5 μg of protein per sample, and the samples were electrophoresed according to the method of Laemmli on 4 to 20% gradient SDS-PAGE (Bio-Rad, Hercules, Calif.). […] Blots were scanned on a Hewlett-Packard ScanJet 5200C scanner (Hewlett-Packard, Palo Alto, Calif.) and analyzed for band area using Un-Scan-It Gel software (Silk Scientific, Orem, Utah).
Samples from individual patients before and after losartan therapy, including derivatized and underivatized controls, were analyzed on a single Western blot. […]

[6] = tested on: urinary MDA; test: Urinary malondialdehyde by fluorometric HPLC, cross-over trial of add-on losartan; type: in vivo, patients with chronic kidney disease; details: losartan 50 mg/d for 4 weeks added to lisinopril 40 mg/d; significantly decreased from 4.75±3.23 before therapy; mean ± SD, 16 patients
Protocol: (§3) Sample derivatization was carried out in 2 mL capacity plastic centrifuge tubes fitted with screw-on caps. To a 50 μl aliquot of sample or TEP standard, 50 μl BHT solution, 400 μl H3PO4 solution, and 100 μl TBA solution were added. Sample tubes were capped tightly, vortexed and then heated for 1 hour in a 100° C. dry bath incubator. Following heat derivatization, samples were placed in an ice-water (0° C.) water bath for 5 minutes to cool. 250 μl n-butanol was subsequently added to each vial for extracting the MDA-TBA complex. Tubes were vortexed for 5 minutes and then centrifuged for 3 minutes at 14,000× min^−1 to separate the two phases. Aliquots of 100 μl were removed from the n-butanol layer of each sample and placed in HPLC vials for analysis.
(§4) The chromatographic system consisted of a Hewlett-Packard Chromatographic Series 1100 autosampler and isocratic pump and Hewlett-Packard model 1046A programmable fluorescence detector (Palo Alto, Calif., USA). The autosampler was programmed to inject 10 μl of each sample at 1-minute intervals. The pump flow rate was 1.0 ml/min with the mobile phase comprised of methanol-buffer (40:60, v/v). […] The fluorescence detector was set at an excitation wavelength of 515 nm and emission wavelength of 553 nm. […] Peak areas were determined using a ChromJet integrator (Thermo Separation Products, San Jose, Calif.). […]

[7] = tested on: plasma MDA; test: Plasma malondialdehyde by fluorometric HPLC, cross-over trial of add-on losartan; type: in vivo, patients with chronic kidney disease; details: losartan 50 mg/d for 4 weeks added to lisinopril 40 mg/d
Protocol: as §3, §4

SMILES | antioxidant enzymes in the kidney (superoxide dismutase, glutathione peroxidase) [1] | blood pressure, change in response to add-on losartan therapy [2] | proteinuria, change in response to add-on losartan therapy [2] | carbonyl concentration from oxidized proteins in plasma, change with losartan [3] | total urinary protein oxidation in excess of plasma after losartan therapy ([4]; after treatment, p=0.029, 99% higher before therapy) | urinary albumin oxidation compared to plasma albumin after losartan ([4]; after treatment, p=0.45, 71% higher before therapy) | total urinary protein oxidation, change with losartan ([4]; before vs after losartan 50 mg/d for 4 weeks) | oxidative damage to urinary albumin ([4]; losartan 50 mg/d for 4 weeks added to lisinopril 40 mg/d, before vs after, proteinuria not reduced) | plasma albumin oxidation, change with losartan [5] | plasma protein oxidation, change with losartan [5] | urinary MDA levels after losartan therapy [6] | plasma MDA, change in response to losartan therapy [7]
CCOC(=O)[C@H](CCc1ccccc1)N[C@@H](C)C(=O)N1CCC[C@H]1C(=O)O [enalapril] | increased |  |  |  |  |  |  |  |  |  |  | 
CCCCc1nc(Cl)c(CO)n1Cc1ccc(-c2ccccc2-c2nn[nH]n2)cc1 [losartan] |  | no change | no change | remained unchanged | 69% | no more oxidized | did not reach statistical significance | reduced | remained unchanged | remained unchanged | 3.39±2.17 μmol/g creatinine | Neither plasma MDA or plasma oxidized proteins (FIGS. 6B and 7) changed
